According to patent EP0099122A2, “Compositions comprising pepstatin and an histamine H2-receptor antagonist having an enhanced antiulcer activity” (Bristol-Myers Company, priority 1982, dated 1984):
Marks after values point to notes of the source that are not given here.

Tests used:
[1] = system: Heidenhain Pouch Dog; experiment: Gastric antisecretory activity in the Heidenhain Pouch Dog; format: in vivo, dogs; details: 95% confidence limits in parentheses; for ED50: Canis lupus familiaris
Protocol: Determination of Gastric Antisecretory […] in the Heidenhain Pouch Dog Prior to surgery, hematology and blood chemistry profiles are obtained and an assessment made as to the general health of selected female dogs. Dogs are vaccinated with Tissue […]-Moore) and housed in general animal quarters for four weeks' observation so incipient diseases may become apparent. Dogs are fasted with water ad libitum 24 hours prior to surgery. […] Subsequent anesthesia is maintained with methoxy- flurane (Pitman-Moore). A mid-line linea alba incision from xiphoid to umbilicus provides good exposure and ease of closure. The stomach is pulled up into the operative fields the greater curvature stretched out at multiple points and clamps placed along the selected line of incision. The pouch is made from the corpus of the stomach so that true parietal cell juice is obtained. About 30% of the corpus volume is resected. The cannula is made of light-weight, biologically-inert material such as nylon or Delrin with dimensions and attachments after DeVito and […] fJ. Appl. Physiol., 14, 138 (1959)]. Post operatively, dogs are medicated with antibiotics and an analgesic. They are allowed 2-3 months for recovery. Experiments are carried out in the following way: […] The dogs are placed in a sling and a saphenous vein cannulated for drug administration. Histamine as the base (100 μg/kg/hr) and chlorpheniramine maleate (0.25 mg/kg/hr) are infused continuously (in a volume of 6 mL/hr) with a Harvard infusion pump. Ninety minutes' infusion are allowed for the dogs to reach a steady state of acid output. At this time the drug or normal saline (control) is administered concomitantly with the secretagogue in a volume of 0.5 mL/kg over a 30 second period. When oral studies are to be carried out, the drug is administered via gastric gavage in a volume of 5 mL/kg. Infusion of the secretagogue is continued and 15 minute samples of the gastric juice are taken for 4.5 hours. Each sample is measured to the nearest 0.5 mL and titratable acidity is determined by titrating a 1 mL sample to pH 7.0 with 0.2N NaOH, using an Autoburet and an electrometric pH meter '(Radiometer). Titratable acid output is calculated in microequivalents by multiplying the volume in milliliters by the acid concentration in milliequivalents per liter. Results are expressed as percent inhibition relative to control readings. Dose response curves are constructed and ED50 values are calculated by regression analyses. From 3 to 5 dogs are used at each dose level and a minimum of three dosage levels are utilized for determination of a dose response curve.

[2] = system: Gastric Fistula Rat; experiment: Gastric antisecretory activity in the Gastric Fistula Rat; format: in vivo, Long Evans rats; details: sc, 95% confidence limits in parentheses
Protocol: Determination of Gastric Antisecretory Activity in the Gastric Fistula Rat
Male Long Evans rats weighing about 240-260 grams at the time of cannula implantation are used. […] The fistula components are designed and the operative procedure is carried out exactly as described in the above reference. Post operatively the animals are individually housed in solid bottom cages with sawdust and are allowed food and water ad libitum throughout the entire recovery period. Animals are not used for test purposes for at least 15 days after the operative procedure.
The animals are fasted but allowed water ad libitum for 20 hours before the testing procedure is to begin. Immediately prior to collection, the cannula is opened and the. stomach washed gently with 30-40 mL of warm saline or distilled water to remove any residual contents. The catheter is then screwed into the cannula in place of the plugging screw and the rat is placed in a clear plastic rectangular cage measuring 40 cm long, 15 cm wide and 13 cm high. The bottom of the cage has a slit approximately 1.5 cm wide and 25 cm long running down the center to accommodate the catheter which hangs through it. In this way the rat is not restricted and can move -freely about the cage during collection periods. The remainder of the assay is carried out as described by Ridley et al. [Research Comm. Chem. Path.
Gastric secretions collected during the first hour after washing the stomach are discarded as they may be contaminated. For oral evaluation, the catheter is then removed from the cannula and replaced with the plugging screw. Water (2 mL/kg) is administered orally via gastric intubation and the animal is returned to the cage for 45 minutes. After this time the plugging screw is removed and replaced with a catheter to which a small plastic vial has been attached to collect the gastric secretions. A two hour sample is collected (this represents the control secretion), the catheter removed and.replaced with the plugging screw. The test drug is now administered orally in a volume of 2 mL/kg via gastric intubation. Forty-five minutes later the plugging screw is again removed, replaced with the catheter attached to a small plastic vial and another 2 hour sample is collected. The secretions in the second sample are compared to those of the control sample in order to determine thee effects of the test drug.
When test compounds are to be evaluated parenterally, the animal is injected ip or sc with the test compound vehicle in a volume of 2 mL/kg immediately after discarding the initial 60 minute collection. A two hour sample is collected (control secretion) and the animals are injected either ip or sc with the test compound in a volume of 2 mL/kg. An additional two hour sample is collected and its secretions are compared to those of the control period to determing drug effects.
The samples are centrifuged in a graduated tube for volume determination. Titratable acidity is measured by titrating a one mL sample to pH 7.0 with 0.02N NaOH, using an Autoburet and an electrometric pH meter (Radiometer). Titratable acid output is calculated in microequivalents by multiplying the volume in milliliters by the acid concentration in milliequivalents per liter.
Results are expressed as percent inhibition relative to control readings. Dose response curves are constructed and ED50 values are calculated by regression analyses. At least three rats are used at each dosage level and a minimum of three dosage levels are utilized for determination of a dose response curve.

[3] = system: gastric acid secretion; experiment: Inhibition of gastric acid secretion relative to cimetidine, various animal studies; format: in vivo; details: inhibitors of gastric acid secretion, oral route
Protocol: Based on this potency difference, the oral dosage of the compounds of Examples 1 and 9 would be about 1/20 to 1/25 that of cimetidine, thus reducing the expected incidence of side effects. The usual oral dosage of cimetidine is 300 mg, given four times a day, while the usual dosage of the compounds of Examples 1 and 9 is about 12-15 mg, given four times a day. It was an object of this invention to further reduce the necessary dosage of the compounds of Formula I by the concomitant administration of a peptic activity- inhibitory amount of pepstatin. As will be shown below, such concomitant administration provides about a three-fold increase in potency compared with the administration of an equal amount of the compound of Formula I alone, thus permitting a further three-fold reduction in the dosage of the compound of Formula I.

Nc1c(NCCCOc2cccc(CN3CCCCC3)c2)c(=O)c1=O [Example 1]
ED50 ([1]; INTRAVENOUS): 0.024 µmol/kg | ED50 ([1]; ORAL): 0.16 µmol/kg | Potency Ratio [cimetidine = 1.0] ([1]; INTRAVENOUS): 87 (62-117)* | Potency Ratio [cimetidine = 1.0] ([1]; ORAL): 25 (14-40) | ED50 ([2]; Rattus norvegicus, read-out: ED50 sc): 0.023 µmol/kg | Potency Ratio [cimetidine = 1.0] [2]: 162 (77-328)* | times more potent than cimetidine [3]: 20-25
